Data as given in PubChem BioAssay (NCI).
Values joined by “and” are separate entries in the source; they are usually repeats but may differ in a detail not shown here. Identical values can stand only once.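 Each compound was tested at five concentrations against cells in 96-well plates for 48 hours. GI50: concentration for 50% inhibition of growth. At the TGI there is no net growth.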

Experiments:
Experiment in all cases: NCI anticancer screen, dose series, 48 h
CCRF-CEM leukemia = system: CCRF-CEM leukemia
K-562 leukemia = system: K-562 leukemia
LOX IMVI melanoma = system: LOX IMVI melanoma
NCI-H23 lung = system: NCI-H23 lung
NCI-H522 lung = system: NCI-H522 lung
SK-OV-3 ovarian = system: SK-OV-3 ovarian
SR leukemia = system: SR leukemia
U251 CNS = system: U251 CNS

| Compound | GI50 (CCRF-CEM leukemia) [µM] | TGI (CCRF-CEM leukemia) | GI50 (K-562 leukemia) [µM] | TGI (K-562 leukemia) | GI50 (LOX IMVI melanoma) [µM] | TGI (LOX IMVI melanoma) | GI50 (NCI-H23 lung) [µM] | TGI (NCI-H23 lung) | GI50 (NCI-H522 lung) [µM] | TGI (NCI-H522 lung) | GI50 (SK-OV-3 ovarian) [µM] | TGI (SK-OV-3 ovarian) | GI50 (SR leukemia) [µM] | TGI (SR leukemia) [µM] | GI50 (U251 CNS) [µM] | TGI (U251 CNS) |
| --- | --- | --- | --- | --- | --- | --- | --- | --- | --- | --- | --- | --- | --- | --- | --- | --- |
| O=C1Nc2ccc3c(c2/C1=C\c1cc2c(cc1Br)OCO2)OCO3 | 0.244 | 3.05 µM | 0.179 | > 35.9 µM | 0.652 | 4.57 µM | 0.857 | 7.42 µM | 0.369 | 8.17 µM | 0.512 | 1.89 µM | 0.239 | > 30.8 | 0.422 | 1.68 µM |
| COc1cc2c3cc1Oc1c(OC)c(OC)cc4c1C(Cc1ccc(O)c(c1)Oc1ccc(cc1)CC3N(C)CC2)N(C)CC4 (stereo not given) | – | 81.8 µM and 57.6 µM | 2.04 | > 100 µM and 12.9 µM | 3.68 | > 100 µM and 15.9 µM | – | 31.1 µM and > 100 µM | 13.4 | > 100 µM and 30.4 µM | 36.9 | 91.2 µM and > 100 µM | 3.32 | 21 | 11.5 | 69.4 µM and 28.9 µM |
| COc1cccc(-c2nc3sccn3c2-c2ccnc(NCCCNS(=O)(=O)c3ccccc3)c2)c1 | 2.73 | > 100 µM | 2.57 | > 100 µM | 3.12 | > 100 µM | 2.99 | > 100 µM | 2.34 | 15 µM | 5.43 | > 100 µM | 3.57 | 92.6 | 4.55 | > 100 µM |
| COc1ccc2c(c1OC)O/C(=C\c1ncc([N+](=O)[O-])n1C)C2=O | 0.297 | 2.83 µM | 2.12 | 7.99 µM | 0.482 | 2.04 µM | 1.3 | 5.6 µM | 1.36 | 3.48 µM | 2.71 | 9.1 µM | 0.103 | – | 2.95 | 13.9 µM |
| CN1CC[C@H](c2c(O)cc(O)c3c(=O)cc(-c4ccccc4Cl)oc23)[C@H](O)C1 | – | > 10 µM | 0.225 | > 10 µM | 0.00602 | > 10 µM | 0.0793 | 0.609 µM | 0.102 | 0.847 µM | 0.49 | > 10 µM | 0.0045 | > 2.67 | – | > 10 µM |
| CSC1=Nc2c(c(C)c(-c3ccccc3)n2COC(CO)CO)C2=NC(=O)CC(C)N12 (stereo not given) | > 100 | > 100 µM | > 100 | > 100 µM | > 100 | > 100 µM | > 100 | > 100 µM | > 100 | > 100 µM | > 100 | > 100 µM | > 100 | > 100 | > 100 | > 100 µM |
| Cc1cc(S(N)(=O)=O)c(S/C(=N\NS(=O)(=O)c2ccccc2)c2ccc(Cl)cc2)cc1Cl | 99.7 | > 100 µM | 59 | > 100 µM | > 100 | > 100 µM | 87.9 | > 100 µM | 23.2 | 87.7 µM | > 100 | > 100 µM | 49.2 | > 100 | > 100 | > 100 µM |
| CCc1ccc2c(c1)N(CCO)C1=C(C(=O)OC1)C2c1cc(OC)c(OC)c(OC)c1 (stereo not given) | 0.185 | > 50 µM | 0.176 | > 30.4 µM | 0.318 | > 50 µM | 0.219 | > 14.4 µM | 0.0837 | 0.26 µM | 0.169 | – | 0.187 | > 50 | 0.182 | > 50 µM |
| COc1ccc2c(c1)C(=O)c1c-2c(OCCN(C)C)nc2cc(OC)c(OC)cc12 | 0.0714 | 3.91 µM | 5.04 | 30.9 µM | 1.01 | 12.3 µM | 9.32 | 22.9 µM | 10.6 | > 100 µM | 18.9 | > 100 µM | 1.22 | 14.4 | 3.08 | 19.1 µM |
| COc1cc(NC2CCCCC2O)c2nc(-c3ccc(Cl)cc3)ccc2c1 (stereo not given) | 4.34 | 68.5 µM | 2.82 | 18.4 µM | 5.95 | 30.9 µM | 6.15 | 61.7 µM | 4.83 | > 100 µM | 33.5 | > 100 µM | 3.26 | 32.8 | 3.88 | > 100 µM |
| COc1ccc(C2NC(=S)NC3=C2CCOc2c3ccc3ccccc23)cc1 (stereo not given) | > 100 | > 100 µM | 32.4 | > 100 µM | > 100 | > 100 µM | > 100 | > 100 µM | 46.6 | > 100 µM | > 100 | > 100 µM | 7.27 | > 100 | > 100 | > 100 µM |
